Where two headings read alike, the source gives them in different places.
Legend:
Type in all cases: cell-based
[1] = test system: African green monkey kidney cells Vero; experiment: Cell viability test (Resazurin), Vero cells; conditions: for evaluation of ability to inhibit cell growth activity (IC50): grade of the IC50 of Table 2
Procedure: (§1) Cell viability was determined with Resazurin (at a final concentration of 25 μg/mL).

[2] = test system: human breast cancer cells MDA-MB-231; experiment: Cell viability test (Resazurin), MDA-MB-231 cells; design: evaluation of ability to inhibit cell growth activity (IC50): scale not given here
Procedure: as §1

[3] = test system: human Glioblastoma cells U87-MG; experiment: Cell viability test (Resazurin), U87-MG cells; design: evaluation of ability to inhibit cell growth activity (IC50): scale not given here; conditions: for evaluation of ability to inhibit cell growth activity (IC50): grade of the IC50 of Table 2
Procedure: as §1

[4] = test system: human breast cancer cells MDA-MB-468; experiment: Cell viability test (Resazurin), MDA-MB-468 cells
Procedure: as §1

[5] = test system: human liver cancer cells Mahlavu; experiment: Cell viability test (Resazurin), Mahlavu cells
Procedure: as §1

[6] = test system: human lung cancer cells A549; experiment: Cell viability test (Resazurin), A549 cells
Procedure: as §1

[7] = test system: human colorectal cancer cells SW-480; experiment: Cell viability test (Resazurin), SW480 cells; design: evaluation of ability to inhibit cell growth activity (IC50): scale not given here
Procedure: as §1

[8] = test system: human leukemia cells U937; experiment: Cell viability test (Resazurin), U937 cells
Procedure: as §1

[9] = Chlorocebus sabaeus, Vero, 48 h, 0.1% FCS, Resazurin, read-out: inhibitory concentrations of cell growth activity IC50
[10] = Homo sapiens, MDA-MB-231, 48 h, MDA-MB-231 cells, 48 hours, 0.1% FCS, Resazurin, read-out: inhibitory concentrations of cell growth activity IC50
[11] = Homo sapiens, MDA-MB-231, MDA-MB-231 cells, grade of the IC50 of Table 2, read-out: evaluation of ability to inhibit cell growth activity (IC50)
[12] = Homo sapiens, U-87 MG, 48 h, 0.1% FCS, Resazurin, read-out: inhibitory concentrations of cell growth activity IC50
[13] = Homo sapiens, U-87 MG, grade of the IC50 of Table 2, read-out: evaluation of ability to inhibit cell growth activity (IC50)
[14] = Homo sapiens, MDA-MB-468, 48 h, MDA-MB-468 cells, 48 hours, 0.1% FCS, Resazurin, read-out: inhibitory concentrations of cell growth activity IC50
[15] = Homo sapiens, MDA-MB-468, MDA-MB-468 cells, grade of the IC50 of Table 2, read-out: evaluation of ability to inhibit cell growth activity (IC50)
[16] = Homo sapiens, Mahlavu, 48 h, 0.1% FCS, Resazurin, read-out: inhibitory concentrations of cell growth activity IC50
[17] = Homo sapiens, Mahlavu, grade of the IC50 of Table 2, read-out: evaluation of ability to inhibit cell growth activity (IC50)
[18] = Homo sapiens, A549, 48 h, A549 cells, 48 hours, 0.1% FCS, Resazurin, read-out: inhibitory concentrations of cell growth activity IC50
[19] = Homo sapiens, A549, A549 cells, grade of the IC50 of Table 2, read-out: evaluation of ability to inhibit cell growth activity (IC50)
[20] = Homo sapiens, SW480, 48 h, SW480 cells, 48 hours, 0.1% FCS, Resazurin, read-out: inhibitory concentrations of cell growth activity IC50
[21] = Homo sapiens, SW480, SW480 cells, grade of the IC50 of Table 2, read-out: evaluation of ability to inhibit cell growth activity (IC50)
[22] = SW480 cells, grade of the IC50 of Table 2
[23] = Homo sapiens, U-937, 48 h, U937 cells, 48 hours, 0.1% FCS, Resazurin, read-out: inhibitory concentrations of cell growth activity IC50
[24] = Homo sapiens, U-937, U937 cells, grade of the IC50 of Table 2, read-out: evaluation of ability to inhibit cell growth activity (IC50)
[25] = 48 hours, 0.1% FCS, Resazurin, read-out: inhibitory concentrations of cell growth activity IC50
[26] = grade of the IC50 of Table 2, read-out: evaluation of ability to inhibit cell growth activity (IC50)
[27] = MDA-MB-231 cells, 48 hours, 0.1% FCS, Resazurin, read-out: inhibitory concentrations of cell growth activity IC50
[28] = MDA-MB-468 cells, 48 hours, 0.1% FCS, Resazurin, read-out: inhibitory concentrations of cell growth activity IC50
[29] = A549 cells, 48 hours, 0.1% FCS, Resazurin, read-out: inhibitory concentrations of cell growth activity IC50
[30] = A549 cells, grade of the IC50 of Table 2, read-out: evaluation of ability to inhibit cell growth activity (IC50)
[31] = SW480 cells, 48 hours, 0.1% FCS, Resazurin, read-out: inhibitory concentrations of cell growth activity IC50
[32] = U937 cells, 48 hours, 0.1% FCS, Resazurin, read-out: inhibitory concentrations of cell growth activity IC50
[33] = U937 cells, grade of the IC50 of Table 2, read-out: evaluation of ability to inhibit cell growth activity (IC50)
[34] = Chlorocebus sabaeus, Vero, grade of the IC50 of Table 2, read-out: evaluation of ability to inhibit cell growth activity (IC50)

CC(C)=C[C@H](O)C[C@@H](C)[C@H]1CC[C@@]2(C)[C@@H]3[C@@H](O)C=C4[C@@H](CC[C@H](O)C4(C)C)[C@]3(C=O)CC[C@]12C [Compound 2]
IC50 [1, 9]: 12.8 µM | evaluation of ability to inhibit cell growth activity (IC50) [1]: ◯ | IC50 [2, 10]: 4.44 µM | IC50 [2, 11]: < 8 µM | IC50 [3, 12]: 7.52 µM | IC50 [3, 13]: < 8 µM | IC50 [4, 14]: 7.25 µM | IC50 [4, 15]: < 8 µM | IC50 [5, 16]: 11.3 µM | IC50 [5, 17]: 8 to 16 µM | evaluation of ability to inhibit cell growth activity (IC50) ([5]; grade of the IC50 of Table 2): ◯ | IC50 [6, 18]: 4.16 µM | IC50 [6, 19]: < 8 µM | IC50 [7, 20]: 13.1 µM | IC50 [7, 21]: 8 to 16 µM | evaluation of ability to inhibit cell growth activity (IC50) [7, 22]: ◯ | IC50 [8, 23]: 0.05 µM | IC50 [8, 24]: < 8 µM

CO[C@H]1O[C@]23C=C[C@@H]4[C@@]1(CC[C@]1(C)[C@@H]([C@H](C)C[C@H](C=C(C)C)OC)CC[C@@]41C)[C@@H]2CC[C@H](O)C3(C)C [Compound 18]
IC50 [1, 25]: > 256 µM | IC50 [1, 26]: > 256 µM | IC50 [2, 27]: > 256 µM | IC50 ([2]; MDA-MB-231 cells, grade of the IC50 of Table 2, read-out: evaluation of ability to inhibit cell growth activity (IC50)): > 256 µM | IC50 [3, 25]: > 256 µM | IC50 [3, 26]: > 256 µM | IC50 [4, 28]: > 256 µM | IC50 ([4]; MDA-MB-468 cells, grade of the IC50 of Table 2, read-out: evaluation of ability to inhibit cell growth activity (IC50)): > 256 µM | IC50 [5, 25]: > 256 µM | IC50 [5, 26]: > 256 µM | IC50 [6, 29]: > 256 µM | IC50 [6, 30]: > 256 µM | IC50 [7, 31]: > 256 µM | IC50 ([7]; SW480 cells, grade of the IC50 of Table 2, read-out: evaluation of ability to inhibit cell growth activity (IC50)): > 256 µM | IC50 [8, 32]: > 256 µM | IC50 [8, 33]: > 256 µM

CO[C@H]1O[C@]23C=C[C@@H]4[C@@]1(CC[C@]1(C)[C@@H]([C@H](C)C/C=C/C(C)(C)O)CC[C@@]41C)[C@@H]2CC[C@H](O)C3(C)C [Compound 20]
IC50 [1, 25]: 12.5 µM | evaluation of ability to inhibit cell growth activity (IC50) [1]: ◯ | IC50 [2, 11]: 8 to 16 µM | IC50 [2, 27]: 10.4 µM | evaluation of ability to inhibit cell growth activity (IC50) ([2]; MDA-MB-231 cells, grade of the IC50 of Table 2): ◯ | IC50 [3, 25]: 12.2 µM | IC50 [3, 13]: 8 to 16 µM | evaluation of ability to inhibit cell growth activity (IC50) [3]: ◯ | IC50 [4, 15]: < 8 µM | IC50 [4, 28]: 6.9 µM | IC50 [5, 25]: 19.7 µM | IC50 [5, 26]: 16 to 64 µM | IC50 [6, 29]: 20.1 µM | IC50 [6, 30]: 16 to 64 µM | IC50 [7, 21]: 8 to 16 µM | IC50 [7, 31]: 12.6 µM | evaluation of ability to inhibit cell growth activity (IC50) [7, 22]: ◯ | IC50 [8, 32]: 4.33 µM | IC50 [8, 33]: < 8 µM

COC1O[C@]23C=C[C@@H]4[C@@]1(CC[C@]1(C)[C@@H]([C@H](C)C[C@H](C=C(C)C)OC)CC[C@@]41C)[C@@H]2CC[C@H](O)C3(C)C (stereo partly drawn) [Compound 16]
IC50 [1, 9]: > 256 µM | IC50 [1, 34]: > 256 µM | IC50 [2, 10]: > 256 µM | IC50 [2, 11]: > 256 µM | IC50 [3, 12]: > 256 µM | IC50 [3, 13]: > 256 µM | IC50 [4, 14]: > 256 µM | IC50 [4, 15]: > 256 µM | IC50 [5, 16]: > 256 µM | IC50 [5, 17]: > 256 µM | IC50 [6, 18]: > 256 µM | IC50 [6, 19]: > 256 µM | IC50 [7, 20]: > 256 µM | IC50 [7, 21]: > 256 µM | IC50 [8, 32]: 97.9 µM | IC50 [8, 33]: 64 to 256 µM

CC(=O)O[C@H]1C=C2[C@@H](CC[C@H](O)C2(C)C)[C@]2(C=O)CC[C@]3(C)[C@@H]([C@H](C)C/C=C/C(C)(C)O)CC[C@@]3(C)[C@H]12 [Compound 9]
IC50 [1, 9]: 25.9 µM | IC50 [1, 34]: 16 to 64 µM | IC50 [2, 10]: 18.3 µM | IC50 [2, 11]: 16 to 64 µM | IC50 [3, 12]: 15.6 µM | IC50 [3, 13]: 8 to 16 µM | evaluation of ability to inhibit cell growth activity (IC50) [3]: ◯ | IC50 [4, 14]: 26.8 µM | IC50 [4, 15]: 16 to 64 µM | IC50 [5, 16]: 5.07 µM | IC50 [5, 17]: < 8 µM | IC50 [6, 18]: 24.4 µM | IC50 [6, 19]: 16 to 64 µM | IC50 [7, 20]: 31.8 µM | IC50 [7, 21]: 16 to 64 µM | IC50 [8, 23]: 11.2 µM | IC50 [8, 24]: 8 to 16 µM | evaluation of ability to inhibit cell growth activity (IC50) ([8]; U937 cells, grade of the IC50 of Table 2): ◯

— patent US10344049B2, “Substituted steroids for the treatment of cancer” (AQUAVAN TECHNOLOGY CO., LTD., priority 2017, dated 2019)
